Data set [1] in a line: NMR-pH titrations (acid dissociation constants, species distribution). The class given is physicochemical. The conditions noted are these: for pKa: aqueous solution, 95% (v/v) H2O and 5% (v/v) D2O; for mole fraction of the monoanionic form ([H2B]−): calculated from pKa values. How it is done:
NMR-pH titrations were performed on a Varian VNMRS spectrometer (600 MHz for ^1H). Spectra were recorded at 25°C. Titrations were carried out in solutions containing 95% (v/v) H2O and 5% (v/v) D2O, with the addition of small amounts of 0.1 M HCl and NaOH. One molar NaOH and solid NaOH crystals were also used to achieve highly basic pH values. The ionic strength was kept at 0.15 M by the presence of NaCl. The concentration of baicalin and its methyl ester was 1.0 × 10^−3 M and ascorbic acid was used in large excess (5.0 × 10^−3 M) to prevent the oxidation of the studied catechol molecules in alkaline solutions. The sample volume was 600 μl. NMR spectra were referenced to the internal standard DSS (sodium 3-(trimethylsilyl)-1-propanesulfonate). The water signal was suppressed by presaturation. Spectra were processed with VNMRj 3.2a software. pH values were read on a Metrohm 2.780.0010 precision pH meter with a 6.0258.600 Unitrode glass Pt 1000 electrode (Metrohm AG, Herisau, Switzerland). The pH-potentiometric system was calibrated using pH 1.68, 4.01, 6.87, 9.18 aqueous buffer solutions. In highly basic solutions, pH was measured by NMR-pH indicator molecules as well to avoid the uncertainty of the glass electrode pH-meter readings in such solutions [24]. The concentration of these pH indicators was 1.0 mM. For the analysis of NMR titration curves of proton chemical shifts versus pH, the software Origin Pro 8 (OriginLab Corp., Northampton,MA, USA) was used.
In baicalin, there are 12 protons connected to carbon atoms, but in ^1H NMR spectra, only the singlets of H8 and H3 on ring A and the doublet of the aromatic H2’,6′ protons can be easily assigned, while the other aromatic protons occur in complex spectrum of multiplets. The protons of the monosaccharide unit overlap with each other and with the signals of the antioxidant ascorbic acid. The suppression of the large water signal also interferes with the observation of certain NMR signals. Thus, during the NMR-pH titration, we followed the above-mentioned three chemical shift signal sets.
Since protonation processes are instantaneous on the NMR chemical shift time scale, the observed chemical shift (δ^obsd) of a certain nucleus can be expressed as a weighted average of chemical shifts of the non-, mono-, di- and triprotonated forms of baicalin (B):2 δ^obsd=δB^3‐xB^3‐+δHB^2‐xHB^2‐+δH2B^−xH2B^−+δH3BxH3B where weighting factors are mole fractions that can be expressed in terms of stepwise protonation macroconstants and the actual hydrogen ion concentration. For example, xH2B^− is:3 xH2B^−=K1K2H^+^2/1+K1H^++K1K2H^+^2+K1K2K3H^+^3
Combining and rearranging Eqs. (2) and (3) yield Eq. (4) that can be directly fitted to the ^1H-NMR titration curve of each nucleus observed.4 δ^obsd=δB^3‐+δHB^2‐K1H^++δH2B^−K1K2H^+^2+δH3BK1K2K3H^+^3/1+K1H^++K1K2H^+^2+K1K2K3H^+^3
The logarithms of the obtained protonation constants correspond to the negative logarithms of dissociation constants, namely pKa1 = logK3, pKa2 = logK2 and pKa3 = logK1 [28].

The nature of data set [2]: Stability in alkaline solution observed by NMR. The format is physicochemical. The source says: Baicalin has three acidic functional moieties, one carboxyl and two phenolic hydroxyl groups. Proton transfer processes can be regarded either from the aspect of dissociation or association. Because of the acidic nature of baicalin, these processes will be characterized here in terms of acid dissociation constants (Ka). Carboxylic acids are typically orders of magnitude stronger than phenols. The determination of baicalin dissociation constants is hampered by its poor water solubility and sensitivity of oxidation of the catechol structure on its A ring. The acid/base properties of baicalin have been investigated earlier, resulting in pKa1, pKa2 and pKa3 values of 5.05, 7.6 and 10.1, respectively. […] We decided to undertake the characterization of baicalin by NMR-pH titrations, where the molecule was protected from oxidation by the antioxidant ascorbic acid up to pH ≈ 13.
NMR-pH titrations were performed on a Varian VNMRS spectrometer (600 MHz for ^1H). Spectra were recorded at 25°C. […] Spectra were processed with VNMRj 3.2a software. pH values were read on a Metrohm 2.780.0010 precision pH meter with a 6.0258.600 Unitrode glass Pt 1000 electrode (Metrohm AG, Herisau, Switzerland). […] In highly basic solutions, pH was measured by NMR-pH indicator molecules as well to avoid the uncertainty of the glass electrode pH-meter readings in such solutions [24]. […]

A short description of data set [3]: Distribution coefficient measurements by the stir-flask method (octanol/water). The class given is physicochemical. Here is the method: The distribution coefficients were calculated from the absorbance of the molecules before and after partitioning at several octanol/water phase ratios. For the pH control, a pH 7.40 phosphate buffer and a standardized HCl solution were used, with an ionic strength of 0.15 M in both cases. The pH of the phosphate buffer was measured using a Metrohm 6.0204.100 combined pH glass electrode and a Metrohm 780 pH meter. The concentration change of baicalin was followed by UV-absorbance measurements. […] Then, the two phases were intensively stirred for 2 h in thermostated double-walled glass cells at constant temperature (25 ± 0.1°C). After separation of the equilibrated phases and centrifugation, the concentration of baicalin was determined by UV spectrophotometry (Perkin-Elmer Lambda 15) at several values at 279 nm (λmax). The distribution coefficients were calculated from the absorbance of baicalin before and after partitioning. […]
For baicalin, the pH-dependent distribution coefficient is the sum of four products:5 DpH=ΣxiPi=xB^3‐PB^3‐+xHB^2‐PHB^2‐+xH2B^−PH2B^−+xH3BPH3B where xi mole fractions are the pH-dependent quantities, while Pi parameters are the pH-independent ones. […]
The mole fraction data can be calculated similarly as shown in Eq. (3); thus, the partition coefficient of the anionic form can be obtained. […]

Data set [4] is described as follows: Thermodynamic solubility by saturation shake-flask method. The format is physicochemical. The following applies: 37°C. How it is done:
A total of 0.94 g of 1 M HCl and 0.35 g of NaCl were diluted and dissolved to 1000 ml with distilled water and used as simulated gastric fluid (SGF) with pH 1.2. This medium served as solvent for the measurement of intrinsic solubility of baicalin.
A total of 250 ml of 0.2 M […] and 77 ml of 0.2 M NaOH were homogenized and diluted to 1000 ml with distilled water. This medium served as simulated intestinal fluid (SIF) with pH 6.8.
Blank buffer of FaSSGF pH 1.6 (1.99 g NaCl dissolved in 900 ml distilled water, adjusted the pH to 1.6 with 1 M HCl and filled to 1000 ml with distilled water) and phosphate buffer pH 6.5 (0.42 g NaOH pellets + 3.95 g NaH2PO4 monohydrate + 6.19 g NaCl dissolved in 900 ml distilled water, adjusted the pH to 6.5 with either 1 M NaOH or 1 M HCl and filled to 1000 ml with distilled water) were prepared as stock solutions.
FaSSGF was produced from blank buffer of FaSSGF pH 1.6, which was completed by 0.08 mM sodium taurocholate, 0.02 mM lecithin, 0.1 mg/ml pepsin and has osmolality of 120 ± 2.5 mOsmol/kg. To obtain the FaSSIF medium, 100 ml of blank phosphate buffer (pH 6.5) was made up by 3 mM sodium taurocholate and 0.75 mM lecithin. FaSSIF has an osmolality of 270 ± 10 mOsmol/kg.
The thermodynamic solubility of baicalin in various media was determined by saturation shake-flask method based on the method of Baka et al.. Briefly, 10 mg of baicalin was added to 5 ml of each solvent in sealed vials. All samples were stirred (approx. 500 rpm) and thermostated (IKA RT-5 power heatable magnetic stirrer, IKA Work Inc., USA) at 37 ± 0.5°C for 24 h allowing it to achieve thermodynamic equilibrium. After this period, 24 h of sedimentation cycle was adopted without stirring at 37 ± 0.5°C. To improve the efficacy of phase-separation, the saturated supernatant of samples was centrifuged at 14,000 rpm for 15 min (Herolab MicroGen 16, Herolab GmbH, Wiesloch, Germany). The aliquots (250 μl) taken for solubility experiments were suitably diluted with blank buffers and the absorbance was measured at λ = 316 nm by UV spectroscopy (Agilent 8453 UV-Visible Spectrophotometer, Agilent Technologies Ltd., USA). […] Ideally, λmax selected for the analysis of drug should not show any interference due to solvents and excipients present in the dissolution medium. […] In the solubility study, thus, λmax 316 nm was selected for the quantification of baicalin. […] All experiments were repeated three times and results were calculated from the linear calibration curve of baicalin in each media. Data are expressed as mean ± SD (μg/ml).

On the set-up of data set [5]: method as in PMID 16107266. The conditions noted are these: cited from earlier work.
On the set-up of data set [6]: method as in PMID 26579386. The following applies: cited from earlier work.
Details of data set [7]: method as in PMID 19722585. The conditions noted are these: cited from earlier work.
Details of data set [8]: method as in PMID 19722585. The following applies: reported as "1.27 (pH 7)"; cited from earlier work.
Setting [9] is: NMR-pH titration, 25°C, ionic strength 0.15 M, ascorbic acid as antioxidant.
Setting [10] is: UV-pH titration, called highly dubious by the authors.

Converted amounts (≈) assume the structure as drawn. Like-named read-outs stand apart in the source and are kept apart here.

As to `COC(=O)[C@H]1O[C@@H](Oc2cc3oc(-c4ccccc4)cc(=O)c3c(O)c2O)[C@H](O)[C@@H](O)[C@@H]1O` [Baicalin methyl ester], in data set [1] (setting [9]), the “pKa1 (acid dissociation constant)” value stood at 8.78 and the “pKa2 (acid dissociation constant)” value is listed as more than 14.
Usually solubility (thermodynamic) stands for solubility found after equilibrating the solid with the medium. Usually log P stands for a log measure of how a compound divides between an organic and an aqueous phase. `O=C(O)[C@H]1O[C@@H](Oc2cc3oc(-c4ccccc4)cc(=O)c3c(O)c2O)[C@H](O)[C@@H](O)[C@@H]1O` [Baicalin, 7-D-glucuronic acid-5,6-dihydroxyflavone]: in data set [2] (NMR investigations, without antioxidant), the “stability in alkaline solution (decomposition)” value is on record as “rapidly decomposes above pH 9”. In addition, the “stability in alkaline solution (oxidation)” value in data set [2] (in the presence of a large excess of ascorbic acid) is given as “rapid oxidation of baicalin above pH 13”. Besides, the “difference between the lipophilicity of the neutral and the anionic form” value in data set [3] was found to be 2.56 log unit. Besides, in data set [3] (standardized 0.15 M HCl solution, 25°C, SD in brackets, read-out: log D (characterizes the log P of the neutral form)), the logD at 2 h came out at 1.28. The thermodynamic solubility at 24 h in data set [4] (distilled water (Aqua dest.), read-out: Thermodynamic solubility) was 67 µg/mL (≈ 150 µM); in data set [4] (fassgf or other biorelevant, thermodynamic from solid, pH 1.6 FaSSGF, read-out: Thermodynamic solubility) it was 33.2 µg/mL (≈ 74.4 µM); in data set [4] (simulated gastric fluid (SGF), simulated gastric fluid, thermodynamic from solid, pH 1.2 SGF, read-out: Thermodynamic solubility (intrinsic solubility)), 11.6 µg/mL (≈ 26.1 µM); in data set [4] (simulated intestinal fluid (SIF), fassgf or other biorelevant, thermodynamic from solid, pH 6.8 SIF, read-out: Thermodynamic solubility) it was 10500 µg/mL (≈ 23500 µM); in data set [4] (thermodynamic from solid, pH 6.5 FaSSIF, read-out: Thermodynamic solubility), 8110 µg/mL (≈ 18200 µM). Further, the absolute bioavailability in data set [5] was 2.2 ± 0.2%. Besides, the water solubility in data set [6] is 54 µg/mL (≈ 121 µM). Besides, the pKa2 in data set [7] (setting [10]) was 7.6. In addition, the pKa3 in data set [7] (setting [10]) is on record as 10.1. The pKa1 in data set [7] (earlier investigation) is given as 5.05. In data set [8], the “log P” value is 1.27. Moreover, the pKa in data set [1] (NMR-pH titration, 25°C, ionic strength 0.15 M, ascorbic acid as antioxidant, read-out: pKa1 (acid dissociation constant)) was 4.21; in data set [1] (NMR-pH titration, 25°C, ionic strength 0.15 M, ascorbic acid as antioxidant, read-out: pKa2 (acid dissociation constant)) it was 8.56; in data set [1] (NMR-pH titration, 25°C, ionic strength 0.15 M, ascorbic acid as antioxidant, read-out: pKa3 (acid dissociation constant)), more than 14. For the same compound, the “mole fraction of the monoanionic form ([H2B]−)” value in data set [1] (pH 6.8 SIF) was 98.0%; in data set [1] (pH of blood (pH 7.40)) it was 93.5%. Besides, the “relative concentration of the dianionic form (HB2−)” value in data set [1] (pH 7.40, calculated from pKa values) is 6.5%.

Source of the values: paper PMC6746686, “Physicochemical Profiling of Baicalin Along with the Development and Characterization of Cyclodextrin Inclusion Complexes” (AAPS PharmSciTech, 2019).
